# According to PubChem BioAssay AID328 (DTP/NCI, 2004):
# Several values for one entry are separate records, joined by “and”; a condition that tells them apart may be missing. Identical values can stand only once. Inconclusive results and toxic doses are left out.
# Tested on: BDF1 mice, P388 leukemia ip, median survival T/C
# Experiment: NCI In Vivo Anticancer Drug Screen. Data for tumor model P388 Leukemia (intraperitoneal) in B6D2F1 (BDF1) mice
# Settings: endpoint: median survival time, higher = longer survival
# Procedure, shortened: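 Each value expresses how treatment altered survival: treated-mouse outcome over vehicle-mouse outcome, both groups bearing the transplanted tumour.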
# [1] = dose: 50.0 mg/kg/injection, schedule: Q01DX009 (ip), vehicle: saline
# [2] = dose: 100.0 mg/kg/injection, schedule: Q01DX009 (ip), vehicle: saline
# [3] = dose: 200.0 mg/kg/injection, schedule: Q01DX009 (ip), vehicle: saline
# [4] = dose: 50.0 mg/kg/injection, schedule: Q01DX009 (ip), vehicle: saline with Tween-80
# [5] = dose: 100.0 mg/kg/injection, schedule: Q01DX009 (ip), vehicle: saline with Tween-80
# [6] = dose: 200.0 mg/kg/injection, schedule: Q01DX009 (ip), vehicle: saline with Tween-80
# [7] = dose: 100.0 mg/kg/injection, schedule: Q04DX003 (ip), vehicle: saline
# [8] = dose: 200.0 mg/kg/injection, schedule: Q04DX003 (ip), vehicle: saline
# [9] = dose: 400.0 mg/kg/injection, schedule: Q04DX003 (ip), vehicle: saline
smiles,measurement,setting,value
CC1NC(C(=O)O)Cc2cc(O)c(O)cc21 (stereo not drawn),T/C,"dose: 12.5 mg/kg/injection, schedule: Q01DX009 (ip), vehicle: Klucel (hydroxypropylcellulose) (HPC)",109 % of control
same,T/C,"dose: 25.0 mg/kg/injection, schedule: Q01DX009 (ip), vehicle: Klucel (hydroxypropylcellulose) (HPC)",109 % of control
same,T/C,"dose: 50.0 mg/kg/injection, schedule: Q01DX009 (ip), vehicle: Klucel (hydroxypropylcellulose) (HPC)",92 % of control and 99 % of control
same,T/C,"dose: 100.0 mg/kg/injection, schedule: Q01DX009 (ip), vehicle: Klucel (hydroxypropylcellulose) (HPC)",101 % of control
O=S(=O)(O/C1=C/CCCCCC1)C(F)(F)C(F)(F)C(F)(F)C(F)(F)F,T/C,[1],107 % of control
same,T/C,[2],109 % of control
same,T/C,[3],109 % of control
CN(C)Cc1ccc(-c2cc3onc(-c4ccccc4)c3c(=O)n2C)cc1,T/C,"dose: 50.0 mg/kg/injection, schedule: Q01DX005 (ip), vehicle: saline with Tween-80",108 % of control
same,T/C,"dose: 100.0 mg/kg/injection, schedule: Q01DX005 (ip), vehicle: saline with Tween-80",94 % of control
same,T/C,"dose: 200.0 mg/kg/injection, schedule: Q01DX005 (ip), vehicle: saline with Tween-80",97 % of control
Nc1nc2nsnc2nc1N,T/C,"dose: 1.56 mg/kg/injection, schedule: Q01DX009 (ip), vehicle: water",111 % of control
same,T/C,"dose: 3.12 mg/kg/injection, schedule: Q01DX009 (ip), vehicle: water",111 % of control
same,T/C,"dose: 3.12 mg/kg/injection, schedule: Q04DX003 (ip), vehicle: water",100 % of control
same,T/C,"dose: 6.25 mg/kg/injection, schedule: Q01DX009 (ip), vehicle: water",100 % of control
same,T/C,"dose: 6.25 mg/kg/injection, schedule: Q04DX003 (ip), vehicle: water",110 % of control
same,T/C,"dose: 12.5 mg/kg/injection, schedule: Q01DX009 (ip), vehicle: water",100 % of control
same,T/C,"dose: 12.5 mg/kg/injection, schedule: Q04DX003 (ip), vehicle: water",100 % of control
same,T/C,"dose: 25.0 mg/kg/injection, schedule: Q01DX009 (ip), vehicle: water",102 % of control
same,T/C,"dose: 25.0 mg/kg/injection, schedule: Q04DX003 (ip), vehicle: water",110 % of control
same,T/C,"dose: 50.0 mg/kg/injection, schedule: Q01DX009 (ip), vehicle: water",111 % of control
same,T/C,"dose: 50.0 mg/kg/injection, schedule: Q04DX003 (ip), vehicle: water",115 % of control
same,T/C,"dose: 100.0 mg/kg/injection, schedule: Q01DX009 (ip), vehicle: water",118 % of control
COc1cccc(C2NC(=O)c3c(n[nH]c3N)S2)c1O (stereo not drawn),T/C,[4],103 % of control
same,T/C,[5],99 % of control
same,T/C,[6],103 % of control
CC(=O)CC(=O)c1ccccc1.CC(=O)CC(=O)c1ccccc1.CC(=O)CC(=O)c1ccccc1.[Co],T/C,"dose: 10.0 mg/kg/injection, schedule: Q01DX001 (ip), vehicle: Klucel (hydroxypropylcellulose) (HPC)",90 % of control
same,T/C,"dose: 10.0 mg/kg/injection, schedule: Q04DX003 (ip), vehicle: Klucel (hydroxypropylcellulose) (HPC)",104 % of control
same,T/C,"dose: 20.0 mg/kg/injection, schedule: Q01DX001 (ip), vehicle: Klucel (hydroxypropylcellulose) (HPC)",104 % of control
same,T/C,"dose: 20.0 mg/kg/injection, schedule: Q04DX003 (ip), vehicle: Klucel (hydroxypropylcellulose) (HPC)",104 % of control
same,T/C,"dose: 40.0 mg/kg/injection, schedule: Q01DX001 (ip), vehicle: Klucel (hydroxypropylcellulose) (HPC)",104 % of control
same,T/C,"dose: 40.0 mg/kg/injection, schedule: Q04DX003 (ip), vehicle: Klucel (hydroxypropylcellulose) (HPC)",100 % of control
CN(Cc1cnc2nc(N)nc(N)c2n1)c1ccc(C(=O)N[C@@H](CCC(=O)O)C(=O)O)cc1,T/C,"dose: 0.37 mg/kg/injection, schedule: Q01DX009 (ip), vehicle: sodium bicarbonate",172 % of control
same,T/C,"dose: 0.38 mg/kg/injection, schedule: Q01DX009 (ip), vehicle: saline",150 % of control and 155 % of control
same,T/C,"dose: 0.5 mg/kg/injection, schedule: Q01DX005 (ip), vehicle: saline with Tween-80",113 % of control
same,T/C,"dose: 0.5 mg/kg/injection, schedule: Q01DX005 (ip), vehicle: saline",184 % of control
same,T/C,"dose: 0.5 mg/kg/injection, schedule: Q01DX009 (ip), vehicle: saline with Tween-80",163 % of control
same,T/C,"dose: 0.5 mg/kg/injection, schedule: Q01DX009 (ip), vehicle: sodium bicarbonate",176 % of control
same,T/C,"dose: 0.5 mg/kg/injection, schedule: Q01DX010 (ip), vehicle: other",245 % of control
same,T/C,"dose: 0.75 mg/kg/injection, schedule: Q01DX009 (ip), vehicle: saline",190 % of control and 195 % of control
same,T/C,"dose: 0.75 mg/kg/injection, schedule: Q01DX009 (ip), vehicle: sodium bicarbonate",209 % of control
same,T/C,"dose: 0.9 mg/kg/injection, schedule: Q01DX009 (ip), vehicle: sodium bicarbonate",171 % of control and 190 % of control and 203 % of control
same,T/C,"dose: 1.0 mg/kg/injection, schedule: Q01DX005 (ip), vehicle: saline with Tween-80",104 % of control
same,T/C,"dose: 1.0 mg/kg/injection, schedule: Q01DX005 (ip), vehicle: saline",194 % of control
same,T/C,"dose: 1.0 mg/kg/injection, schedule: Q01DX009 (ip), vehicle: saline with Tween-80",181 % of control
same,T/C,"dose: 1.0 mg/kg/injection, schedule: Q01DX009 (ip), vehicle: sodium bicarbonate",236 % of control and 150 % of control and 181 % of control
same,T/C,"dose: 1.0 mg/kg/injection, schedule: Q01DX010 (ip), vehicle: other",300 % of control
same,T/C,"dose: 1.3 mg/kg/injection, schedule: Q01DX009 (ip), vehicle: sodium bicarbonate",228 % of control and 179 % of control and 205 % of control
same,T/C,"dose: 1.5 mg/kg/injection, schedule: Q01DX009 (ip), vehicle: saline",229 % of control and 222 % of control
same,T/C,"dose: 2.0 mg/kg/injection, schedule: Q01DX009 (ip), vehicle: saline with Tween-80",222 % of control
same,T/C,"dose: 2.25 mg/kg/injection, schedule: Q01DX009 (ip), vehicle: sodium bicarbonate",231 % of control
same,T/C,"dose: 2.3 mg/kg/injection, schedule: Q01DX009 (ip), vehicle: sodium bicarbonate",227 % of control and 239 % of control and 263 % of control
same,T/C,"dose: 3.0 mg/kg/injection, schedule: Q01DX009 (ip), vehicle: saline",231 % of control and 236 % of control
same,T/C,"dose: 3.0 mg/kg/injection, schedule: Q01DX009 (ip), vehicle: sodium bicarbonate",95 % of control and 100 % of control
same,T/C,"dose: 3.5 mg/kg/injection, schedule: Q01DX009 (ip), vehicle: sodium bicarbonate",241 % of control and 244 % of control and 104 % of control
same,T/C,"dose: 8.64 mg/kg/injection, schedule: Q04DX003 (ip), vehicle: sodium bicarbonate",182 % of control
same,T/C,"dose: 10.0 mg/kg/injection, schedule: Q04DX004 (ip), vehicle: sodium bicarbonate",243 % of control
same,T/C,"dose: 14.4 mg/kg/injection, schedule: Q04DX003 (ip), vehicle: sodium bicarbonate",199 % of control
same,T/C,"dose: 15.0 mg/kg/injection, schedule: Q04DX004 (ip), vehicle: sodium bicarbonate",250 % of control
same,T/C,"dose: 20.0 mg/kg/injection, schedule: Q04DX003 (ip), vehicle: sodium bicarbonate",221 % of control
same,T/C,"dose: 20.0 mg/kg/injection, schedule: Q04DX004 (ip), vehicle: sodium bicarbonate",248 % of control
same,T/C,"dose: 24.0 mg/kg/injection, schedule: Q04DX003 (ip), vehicle: sodium bicarbonate",202 % of control
same,T/C,"dose: 25.0 mg/kg/injection, schedule: Q04DX003 (ip), vehicle: sodium bicarbonate",292 % of control
same,T/C,"dose: 25.0 mg/kg/injection, schedule: Q04DX004 (ip), vehicle: sodium bicarbonate",248 % of control
same,T/C,"dose: 30.0 mg/kg/injection, schedule: Q04DX003 (ip), vehicle: sodium bicarbonate",238 % of control
same,T/C,"dose: 40.0 mg/kg/injection, schedule: Q04DX003 (ip), vehicle: sodium bicarbonate",237 % of control
COC(COC(N)=O)C1=C(N2CC2)C(=O)C(C)=C(N2CC2)C1=O (stereo not drawn),T/C,"dose: 0.03 mg/kg/injection, schedule: Q01DX009 (ip), vehicle: saline",123 % of control
same,T/C,"dose: 0.12 mg/kg/injection, schedule: Q01DX009 (ip), vehicle: saline",154 % of control
same,T/C,"dose: 0.25 mg/kg/injection, schedule: Q01DX009 (ip), vehicle: saline",190 % of control
same,T/C,"dose: 0.5 mg/kg/injection, schedule: Q01DX009 (ip), vehicle: saline",258 % of control
O=C(c1ccccc1)N1C=CN(C(=O)c2ccccc2)C1c1ncc[nH]1,T/C,[4],105 % of control
same,T/C,[5],105 % of control
same,T/C,[6],106 % of control
N#CC(Nc1ccccc1C(N)=O)c1ccccc1 (stereo not drawn),T/C,[7],109 % of control
same,T/C,[8],104 % of control
same,T/C,[9],95 % of control
O=C(N[C@@H](c1ccccc1)[C@H](N=Cc1ccccc1)c1ccccc1)c1ccccc1,T/C,[1],102 % of control
same,T/C,"dose: 50.0 mg/kg/injection, schedule: Q04DX003 (ip), vehicle: saline",91 % of control
same,T/C,[2],100 % of control
same,T/C,[7],92 % of control
same,T/C,[3],91 % of control
same,T/C,[8],91 % of control
same,T/C,"dose: 400.0 mg/kg/injection, schedule: Q01DX009 (ip), vehicle: saline",94 % of control
same,T/C,[9],90 % of control
